Data on two compounds can be found in patent US4880817A, “O-functionalized derivatives of substituted isoquinolin-3-ols having cardiotonic and/or phosphodiesterase fraction III inhibiting properties and/or renal vasodilating properties” (Ortho Pharmaceutical Corporation, priority 1987, dated 1989).

Read-outs that look alike come from different tables or passages of the source.

For one experiment, the system named is platelet aggregation. The following applies: reported in U.S. Pat. No. 3,870,721; cited from earlier work.
Experiment [1] has as its system adult mongrel dogs. Description: Acute in vivo cardiotonic activity in anesthetized dogs. Details: species or system mongrel dog. The following applies: Canis lupus familiaris, dose 1.87 mpk, iv, relative to controls. The procedure:
The acute in vivo cardiotonic activity of compounds prepared according to the present invention was determined according to a modification of the procedure described by Alousi et al., Circ.
In particular, adult mongrel dogs were anesthetized with sodium pentobarbital and were artificially respired. Arterial pressure was monitored via a femoral artery, and the pulse pressure was used to trigger a cardiotachometer for heart rate. Left ventricular pressure was determined with a Millar catheter, and dP/dT (the change in ventricular pressure with time) was derived. Cardiac output was determined by measuring ascending aortic blood flow with an electromagnetic flow probe, and myocardial contractile force was measured with a Walton Brodie strain gauge sutured to the right ventricle. Lead II EKG was also recorded.
A standard dose (10 μg/kg/min) of dopamine was administered to assess myocardial responsiveness.
Compounds of the invention were administered by intravenous infusion and the effects on cardiovascular parameters were determined.

Experiment [2] has as its target T1, Phosphodiesterase Fraction III (Canis lupus familiaris, UniProt A0A8I3NYE0).
T1 construct: The fraction III enzyme was isolated as an isomzyme from the crude canine heart homogenate; from tissue; host or cells: canine heart (crude homogenate, ion exchange chromatography)
T1 sequence (A0A8I3NYE0 1-1135): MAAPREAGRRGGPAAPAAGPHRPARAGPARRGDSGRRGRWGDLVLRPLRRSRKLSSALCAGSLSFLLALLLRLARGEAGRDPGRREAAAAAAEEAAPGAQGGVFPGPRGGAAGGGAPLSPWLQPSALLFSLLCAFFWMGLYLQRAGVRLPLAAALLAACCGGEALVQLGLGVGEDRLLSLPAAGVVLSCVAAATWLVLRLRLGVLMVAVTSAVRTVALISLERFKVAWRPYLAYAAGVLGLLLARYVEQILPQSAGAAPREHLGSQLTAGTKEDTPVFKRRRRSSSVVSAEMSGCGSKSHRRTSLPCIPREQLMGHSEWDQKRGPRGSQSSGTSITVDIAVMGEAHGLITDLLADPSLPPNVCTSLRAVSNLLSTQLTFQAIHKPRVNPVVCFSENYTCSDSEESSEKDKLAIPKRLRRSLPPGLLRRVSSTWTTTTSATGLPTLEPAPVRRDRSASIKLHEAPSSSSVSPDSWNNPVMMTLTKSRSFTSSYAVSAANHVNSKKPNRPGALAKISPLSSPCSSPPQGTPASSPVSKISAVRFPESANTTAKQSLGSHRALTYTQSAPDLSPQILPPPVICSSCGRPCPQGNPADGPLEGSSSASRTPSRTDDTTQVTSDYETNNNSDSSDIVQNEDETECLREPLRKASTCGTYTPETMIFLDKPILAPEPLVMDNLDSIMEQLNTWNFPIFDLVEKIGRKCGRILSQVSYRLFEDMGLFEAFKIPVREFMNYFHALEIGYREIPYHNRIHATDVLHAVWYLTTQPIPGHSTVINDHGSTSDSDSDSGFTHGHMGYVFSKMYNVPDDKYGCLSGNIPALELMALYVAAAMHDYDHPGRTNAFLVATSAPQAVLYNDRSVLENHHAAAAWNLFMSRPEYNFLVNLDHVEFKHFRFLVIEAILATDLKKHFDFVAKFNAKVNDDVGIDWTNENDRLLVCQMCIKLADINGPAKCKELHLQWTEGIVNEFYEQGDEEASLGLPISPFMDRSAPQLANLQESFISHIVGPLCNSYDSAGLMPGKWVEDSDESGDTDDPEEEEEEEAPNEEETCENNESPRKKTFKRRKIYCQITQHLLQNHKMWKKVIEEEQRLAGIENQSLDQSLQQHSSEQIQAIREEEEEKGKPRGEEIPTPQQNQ
Description: Inhibition of phosphodiesterase fraction III activity. The following applies: cyclic AMP 0.10-1.0 μM, pH 7.4; enzyme from canine heart homogenate; read-out: IC50. The experiment is classed as biochemical, canine. Here is the method: Thompson et al. described a cyclic nucleotide phosphodiesterase assay in Advances in Cyclic Nucleotide Research, Brooker et al., eds., 10, 69-92 (1979). The following procedure is based on that published assay and measures the ability of compounds to inhibit cyclic nucleotide phosphodiesterase which is an enzyme that converts either cyclic AMP or cyclic GMP to the noncyclized AMP or GMP, respectively.
Compounds were tested at various concentrations in the presence of cyclic AMP (0.10-1.0 μM containing 0.2 microCuries ^3 H-cyclic AMP), cyclic nucleotide phosphodiesterase, and 0.05M Tris-Cl buffer (pH 7.4, containing 5 mM magnesium chloride). After a specified time, the reaction was stopped by heating to 100° C. for 1 minute. After cooling, 0.10 ml of a solution containing snake venom (1 mg/ml) was added, and the reaction was allowed to proceed for 30 min. Termination of this reaction was accomplished by the addition of 1.0 ml of 33 percent DOWEX AGl×8 resin slurry (Dow Chemical Co., Midland, MI) to separate the product from the unconverted substrate. An aliquot was removed from the supernatant and analyzed by liquid scintillation spectrometry.
The fraction III enzyme was isolated as an isomzyme from the crude canine heart homogenate by ion exchange chromatography. The enzyme activity was designated fraction III since it is the third and last phosphodiesterase activity to be eluted from the chromatographic column. The fraction III enzyme has a relatively high affinity and specificity for the cyclic AMP.
Data are presented as the IC50 which is the concentration (in micromoles) of a compound that was required to inhibit 50 percent of the cyclic nucleotide phosphodiesterase activity.

Experiment [3] relates to adult mongrel dogs. Briefly: Renal vasodilating activity in anesthetized dogs. The experiment is classed as in vivo, mongrel dog. The following applies: Canis lupus familiaris, dose 6.2 mpk, relative to controls. Put shortly: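 In anesthetized adult mongrel dogs, renal artery flow was measured electromagnetically, with carotid blood pressure and heart rate also recorded. Compound was infused i.v. or intra-renal-artery at rising, usually 3-fold, rates for 5 min each, after a 3 μg/kg/min dopamine check. Values are maximal % changes from pre-drug control in RBF, RVR (MABP/RBF), MABP and HR.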

Setting [4] is: read-out: HR: percent change in heart rate.
Where [5] appears, read: read-out: MABP: percent change in mean arterial blood pressure.

On to `CC(=O)NC1C(=O)NC(=O)c2ccccc21` (stereo not shown) [4-acetamido-1,2,3,4-tetrahydro 1,3-isoquinolinedione], for which the “inhibition of platelet aggregation” value with platelet aggregation is on record as “inhibit platelet aggregation”.

By IC50 is commonly meant the midpoint of a concentration-inhibition curve. For the compound `CCCCOc1cc2c(C)nc(OC(C)=O)c([N+](=O)[O-])c2cc1OC` [Cmpd 22], the change in vivo at 1.87 mg/kg in the experiment with adult mongrel dogs [1] (read-out: CF: percent change in cardiac force) was 43%; in the experiment on adult mongrel dogs [1] (setting [4]), 2%; in the experiment on adult mongrel dogs [1] (setting [5]) it was -23%; in the experiment with adult mongrel dogs [1] (read-out: dP/dT: maximum percent change in left ventricular pressure with time), 68%. Besides, the IC50 in experiment [2] came to 3.5 µM. Also, the change in vivo at 6.2 mg/kg is 25% in the experiment with adult mongrel dogs [3] (setting [4]), -12% in the experiment on adult mongrel dogs [3] (setting [5]), 11% in the experiment with adult mongrel dogs [3] (read-out: RBF: percent change in renal blood flow) and -22% in the experiment with adult mongrel dogs [3] (read-out: RVR: percent change in renal vascular resistance).
